These results are taken from ChEMBL document CHEMBL3779850, “Synthesis, in vitro evaluation, and molecular modeling investigation of benzenesulfonimide peroxisome proliferator-activated receptors α antagonists” (Eur J Med Chem, 2016).

Molecules are shown by their SMILES. pIC50: −log10 of the molar value. Activity calls are given as the source filed them. No cut-off for these calls is given here.

In assay [1] the target is T1, Peroxisome proliferator-activated receptor alpha (Homo sapiens) (UniProt Q07869).
T1 sequence (whole entry): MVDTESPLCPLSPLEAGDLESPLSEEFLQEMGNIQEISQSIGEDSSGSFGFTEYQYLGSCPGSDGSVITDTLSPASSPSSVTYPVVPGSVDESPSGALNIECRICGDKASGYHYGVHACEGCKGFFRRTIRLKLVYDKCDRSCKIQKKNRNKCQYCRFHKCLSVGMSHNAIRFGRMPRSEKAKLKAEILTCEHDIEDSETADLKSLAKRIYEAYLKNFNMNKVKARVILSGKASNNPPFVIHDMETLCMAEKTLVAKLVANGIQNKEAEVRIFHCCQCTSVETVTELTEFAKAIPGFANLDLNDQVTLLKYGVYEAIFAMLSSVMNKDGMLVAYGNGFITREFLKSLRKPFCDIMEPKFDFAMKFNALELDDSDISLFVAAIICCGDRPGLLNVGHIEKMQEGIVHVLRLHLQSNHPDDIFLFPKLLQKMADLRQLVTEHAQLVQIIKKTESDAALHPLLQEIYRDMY
Kind of assay: Antagonist activity at PPARalpha in human HepG2 cells assessed as inhibition of GW7647-induced CPT1 mRNA expression at 150 uM after 48 hrs by RT-PCR method. Format: cell-based.

In assay [2] the target is T2, Peroxisome proliferator-activated receptor delta (Homo sapiens) (UniProt Q03181).
T2 sequence (whole entry): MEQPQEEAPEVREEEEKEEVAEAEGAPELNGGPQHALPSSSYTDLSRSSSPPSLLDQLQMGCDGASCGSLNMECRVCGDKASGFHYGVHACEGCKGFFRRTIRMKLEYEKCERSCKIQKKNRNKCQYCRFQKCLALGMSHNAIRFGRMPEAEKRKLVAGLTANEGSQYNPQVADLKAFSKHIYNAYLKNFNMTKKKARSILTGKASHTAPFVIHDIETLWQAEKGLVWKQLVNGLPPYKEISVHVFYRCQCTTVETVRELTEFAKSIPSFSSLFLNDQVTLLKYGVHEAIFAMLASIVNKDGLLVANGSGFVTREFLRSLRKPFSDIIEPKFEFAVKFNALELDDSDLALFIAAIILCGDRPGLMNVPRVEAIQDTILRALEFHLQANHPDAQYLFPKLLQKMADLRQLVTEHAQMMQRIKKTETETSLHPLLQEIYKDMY
Put plainly: Transactivation of PPARdelta (unknown origin) expressed in HEK293A cells after 16 to 18 hrs by luciferase reporter assay. Format: cell-based. Particulars: HEK293-A. Background: A reporter such as luciferase makes a cellular process visible.

For assay [3], the target named is T1, Peroxisome proliferator-activated receptor alpha (Homo sapiens). Kind of assay: Transactivation of PPARalpha in human HepG2 cells assessed as increase in CPT1 mRNA expression at 150 uM after 48 hrs by RT-PCR method. Format: cell-based.
Assay [4] has as its target T3, Peroxisome proliferator-activated receptor alpha (Homo sapiens, UniProt Q07869).
T3 sequence (Q07869 whole entry): T1 sequence (whole entry)
Put plainly: Antagonist activity at PPARalpha (unknown origin) expressed in HEK293A cells assessed as inhibition of GW7647-induced transactivation after 16 to 18 hrs by luciferase reporter assay. Format: cell-based, HEK293-A.

Assay [5] has as its target T1, Peroxisome proliferator-activated receptor alpha (Homo sapiens). Kind of assay: Transactivation of PPARalpha (unknown origin) expressed in HEK293A cells at 150 uM after 16 to 18 hrs by luciferase reporter assay relative to control. Format: cell-based. Particulars: HEK293-A.
In assay [6] the target is T4, Peroxisome proliferator-activated receptor gamma (Homo sapiens) (UniProt P37231).
T4 sequence (whole entry): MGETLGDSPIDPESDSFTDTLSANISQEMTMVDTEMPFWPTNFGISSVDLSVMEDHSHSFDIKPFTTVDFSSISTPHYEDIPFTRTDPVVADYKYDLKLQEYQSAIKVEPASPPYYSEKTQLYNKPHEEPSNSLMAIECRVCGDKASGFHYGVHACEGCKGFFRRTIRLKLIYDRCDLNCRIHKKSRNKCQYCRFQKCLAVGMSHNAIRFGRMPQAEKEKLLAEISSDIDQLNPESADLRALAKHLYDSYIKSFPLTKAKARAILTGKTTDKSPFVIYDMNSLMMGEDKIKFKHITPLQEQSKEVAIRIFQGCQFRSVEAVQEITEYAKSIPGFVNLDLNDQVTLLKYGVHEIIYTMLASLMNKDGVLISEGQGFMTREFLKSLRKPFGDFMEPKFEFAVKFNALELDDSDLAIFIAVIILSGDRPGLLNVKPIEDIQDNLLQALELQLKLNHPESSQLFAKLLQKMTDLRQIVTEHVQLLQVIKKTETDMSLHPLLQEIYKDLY
Put plainly: Antagonist activity at PPARgamma (unknown origin) expressed in HEK293A cells after 16 to 18 hrs by luciferase reporter assay. Format: cell-based. The conditions noted are these: HEK293-A.

The target of assay [7] is T4, Peroxisome proliferator-activated receptor gamma (Homo sapiens). Put plainly: Transactivation of PPARgamma (unknown origin) expressed in HEK293A cells at IC50 after 16 to 18 hrs by luciferase reporter assay. Format: cell-based. Particulars: HEK293-A.

Usually pIC50 stands for the negative decadic logarithm of the IC50, by convention in mol/L. Consider `O=C(NS(=O)(=O)c1ccc([N+](=O)[O-])cc1)C(Sc1nc2cc(Cl)ccc2s1)c1ccccc1` (stereo not given), for which the inhibition entry in assay [1] and in assay [6] was “Active” each time. For the same compound, the result in assay [2] and in assay [3] was inactive. Further, the pIC50 in assay [4] is 6.09. In assay [5], the fold change (FC) was found to be 0.22.
Turning to `CC(C)(Oc1ccc(CCNC(=O)c2ccc(Cl)cc2)cc1)C(=O)NS(=O)(=O)c1ccccc1`, the pIC50 in assay [4] is 6.10. Also, the fold change (FC) in assay [5] stood at 0.28.
On to `CCCC(Sc1nc2cc(Cl)ccc2s1)C(=O)NS(=O)(=O)c1ccc(C)cc1` (stereo not given), for which the result in assay [2] was inactive. In addition, the pIC50 in assay [4] was 5.34. In addition, the fold change (FC) in assay [5] is under 0.01. In addition, the inhibition result in assay [6] was “Active”.
For `CCCC(Sc1nc2cc(Cl)ccc2s1)C(=O)NS(=O)(=O)c1ccc(NC(C)=O)cc1` (stereo not given) the same measures were “inactive”, 3.97, 0.2 and “Active”.
For the compound `CCCC(Sc1nc2cc(Cl)ccc2s1)C(=O)NS(=O)(=O)c1ccc(NC(=O)c2ccccc2)cc1` (stereo not given), the outcome in assay [2] was inactive. Also, the pIC50 in assay [4] was 5.35. In addition, in assay [5], the fold change (FC) was 0.05. The inhibition result in assay [6] was “Active”.
Turning to `CCCC(Sc1nc2cc(Cl)ccc2s1)C(=O)NS(=O)(=O)c1ccc(Cl)cc1` (stereo not given), the result in assay [2] was inactive. For the same compound, in assay [4], the pIC50 was 5.16. Further, the fold change (FC) in assay [5] came out at 0.04. Further, the inhibition result in assay [6] is “Active”.
Turning to `CC(C)(Oc1ccc(Cl)cc1)C(=O)NS(=O)(=O)c1ccccc1`, the pIC50 in assay [4] is 6.19. The fold change (FC) in assay [5] was 0.47.
Take `CCCC(Sc1nc2cc(Cl)ccc2s1)C(=O)NS(=O)(=O)c1ccc(OC)cc1` (stereo not given): the inhibition result in assay [1] and in assay [6] was “Active” throughout. For the same compound, the result in assay [2] and in assay [3] was inactive. Besides, the pIC50 in assay [4] was 6.17. Also, the fold change (FC) in assay [5] was under 0.01.
For the compound `Cc1ccc(C)c(OCCCC(C)(C)C(=O)NS(=O)(=O)c2ccccc2)c1`, the pIC50 in assay [4] is 5.06. In assay [5], the fold change (FC) was found to be 0.05.
The like results for `CC(C)(Oc1ccc(C(=O)c2ccc(Cl)cc2)cc1)C(=O)NS(=O)(=O)c1ccccc1` were, in that order, 5.12 and 0.08.
`CCCC(Sc1nc2cc(Cl)ccc2s1)C(=O)NS(=O)(=O)c1ccc([N+](=O)[O-])cc1` (stereo not given): the inhibition entry in assay [1] and in assay [6] was “Active” in each case. The result in assay [2] and in assay [3] was inactive. The pIC50 in assay [4] was 6.07. The fold change (FC) in assay [5] was found to be 0.03.
On to `O=C(NS(=O)(=O)c1ccc(Cl)cc1)C(Sc1nc2cc(Cl)ccc2s1)c1ccccc1` (stereo not given), for which the outcome in assay [7] was Active. The result in assay [2] was inactive. The fold change (FC) in assay [5] came out at 0.9.
